pKi: −log10 of the molar value.
Molecular target: Hp ND-AspRS (non-discriminating aspartyl-tRNA synthetase) (Helicobacter pylori, UniProt P56459)
Test: inhibition of tRNA aminoacylation with […] L-Asp
Type: biochemical

Hp ND-AspRS (non-discriminating aspartyl-tRNA synthetase), sequence (P56459 whole entry): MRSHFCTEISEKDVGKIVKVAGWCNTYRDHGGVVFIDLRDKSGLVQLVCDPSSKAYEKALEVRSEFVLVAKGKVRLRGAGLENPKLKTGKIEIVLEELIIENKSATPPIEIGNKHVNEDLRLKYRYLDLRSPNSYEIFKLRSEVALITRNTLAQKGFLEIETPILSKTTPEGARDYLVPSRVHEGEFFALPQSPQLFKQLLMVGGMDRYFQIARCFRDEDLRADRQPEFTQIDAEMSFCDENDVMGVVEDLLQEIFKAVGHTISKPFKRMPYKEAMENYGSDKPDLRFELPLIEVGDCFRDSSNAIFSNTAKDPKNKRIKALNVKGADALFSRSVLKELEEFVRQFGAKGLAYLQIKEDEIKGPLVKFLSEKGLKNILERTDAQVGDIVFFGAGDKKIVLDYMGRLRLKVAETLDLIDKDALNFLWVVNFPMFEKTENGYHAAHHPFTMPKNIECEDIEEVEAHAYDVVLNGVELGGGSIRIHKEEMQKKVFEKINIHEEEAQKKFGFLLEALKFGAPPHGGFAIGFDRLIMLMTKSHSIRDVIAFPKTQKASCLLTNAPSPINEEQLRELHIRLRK

pKi: 5.10
SMILES: Nc1ncnc2c1ncn2[C@@H]1O[C@H](COP(=O)(O)OC[C@@H](N)CC(=O)O)[C@@H](O)[C@H]1O [Asp-ol-AMP]
